How the values were obtained:
[1] = tested on: blast (Pyricularia oryzae Cavara); type: cell-based; details: paper discs immersed in 500-ppm aqueous solution; after two days; qualitative
[2] = tested on: diamondback moths (Plutella maculipennis Curtis); assay: Insecticidal activity, treated cabbage leaves fed to moths; type: in vivo; details: 240 h, cabbage leaves immersed in 500-ppm aqueous solution, after 10 days, read-out: insects dead
From the text: Cabbage leaves were immersed in a 500-ppm aqueous CF2 BrCF2 CH2 CH(NH2)CO2 H solution, removed from the solution and dried. They were placed in a Petri dish, in which a group of diamondback moths (Plutella maculipennis Curtis) were fed on the cabbage leaves. After 10 days, 70% of the insects were dead. When the same number of diamondback moths were fed on cabbage leaves which had not been given the treatment, only 10% of the insects were dead after 10 days.

[3] = tested on: bacterial leaf blight (Xanthomonas oryzae Dowson); type: cell-based; details: paper discs immersed in 500-ppm aqueous solution; after two days; qualitative
[4] = tested on: pickerelweed (Monochloria vaginalis var. plantaginea); assay: Herbicidal activity, miniature paddy field; type: in vivo; details: 1% aqueous solution, after 15 days
From the text: (§1) Paddy-field soil kneaded in a concrete mixer was placed in 500-ml plastic beakers. Seeds of barnyardgrass (Echinochloa crusgalli Beauv.) were scattered on the soil and incorporated in the soil to a depth of about 2 cm from the surface. Afterward, the seeds of pickerelweed (Monochloria vaginalis var. plantaginea) and purple loosestrife (Lythrum anceps) were scattered on the surface of soil. Then, slender spikerush (Eleocharis acicularis) and rice were transplanted to the soil. The soil in the beakers was inundated to a depth of about 3 cm. After two days, 1% aqueous solution of CF2 ClCFClCH2 CH(NH2)CO2 H and CF2 BrCF2 CH2 CH(NH2)CO2 H were applied to the soil in the beakers at dosage rates of 1000 g, 500 g, and 250 g per 10 acres with the aid of a pipet. After 15 days, the miniature paddy fields were examined.

[5] = tested on: purple loosestrife (Lythrum anceps); assay: Herbicidal activity, miniature paddy field; type: in vivo; details: 1% aqueous solution, after 15 days
From the text: as §1

[6] = tested on: melanose (Diaporthe citri Wolf); type: cell-based
[7] = tested on: black spot (Alternaria kikuchiana Tanka); type: cell-based
acid phosphatase = assay: Enzyme inhibiting activity; type: biochemical; details: pH 5, 37° C. for 20 minutes
Method: A 2×10^-4 M aqueous solution of fluorine-containing amino acid was prepared by adding a fluorine-containing amino acid, viz. CF2 ClCHFCH2 CH(NH2)CO2 H, dissolved in a small amount of methanol to a mixture consisting of 0.1 cc of a 0.025% aqueous solution of acid phosphatase, 0.1 mol of a substrate, 0.05 cc of DPNP, 0.25 cc of water and a 0.1 N sodium acetate (pH 5) as a buffer. The resultant mixture was incubated at 37° C. for 20 minutes. At the end of the 20 minutes, the reaction proceeding in the mixture was stopped by adding 3 cc of an aqueous NaOH solution to the mixture. The mixture was assayed for absorption at a wavelength of 422 mμ.
When the procedure was repeated by using a 1×10^-3 M aqueous solution of CF2 ClCFClCH(CH3)CH(NH2)CO2 H, the enzyme inhibition ratio was 37%.

Structure (SMILES): NC(CC(F)(F)C(F)(F)Br)C(=O)O (stereo not shown) [CF2 BrCF2 CH2 CH(NH2)CO2 H, 2-amino-4,4,5,5-tetrafluoro-5-bromopentanoic acid]
- growth of the germs of blast [1]: impeded the growth
- mortality at 500 µg/mL [2]: 70%
- growth of the germs of bacterial leaf blight [3]: impeded the growth
- destruction of pickerelweed ([4]; 250 g per 10 acres): half destroyed
- destruction of pickerelweed ([4]; 500 g per 10 acres): half destroyed
- destruction of pickerelweed ([4]; 1000 g per 10 acres): completely destroyed
- destruction of purple loosestrife ([5]; 250 g per 10 acres): half destroyed
- destruction of purple loosestrife ([5]; 500 g per 10 acres): half destroyed
- destruction of purple loosestrife ([5]; 1000 g per 10 acres): completely destroyed

Structure (SMILES): NC(CC(F)(Cl)C(F)(F)Cl)C(=O)O (stereo not shown) [CF2 ClCFClCH2 CH(NH2)CO2 H]
- growth of the germs of melanose [6]: impeded the growth
- growth of the germs of black spot [7]: impeded the growth
- destruction of pickerelweed ([4]; 250 g per 10 acres): completely destroyed
- destruction of pickerelweed ([4]; 500 g per 10 acres): completely destroyed
- destruction of pickerelweed ([4]; 1000 g per 10 acres): completely destroyed
- destruction of purple loosestrife ([5]; 250 g per 10 acres): completely destroyed
- destruction of purple loosestrife ([5]; 500 g per 10 acres): completely destroyed
- destruction of purple loosestrife ([5]; 1000 g per 10 acres): completely destroyed

Structure (SMILES): CC(C(N)C(=O)O)C(F)(Cl)C(F)(F)Cl (stereo not shown) [CF2 ClCFClCH(CH3)CH(NH2)CO2 H, 2-amino-3-methyl-4,5-dichloro-4,5,5-trifluoropentanoic acid]
- enzyme inhibition ratio (acid phosphatase; 1×10^-3 M, 1000 µM): 37%

Structure (SMILES): NC(CC(F)C(F)(F)Cl)C(=O)O (stereo not shown) [CF2 ClCHFCH2 CH(NH2)CO2 H, 2-amino-4,5,5-trifluoro-5-chloropentanoic acid]
- enzyme inhibition (acid phosphatase; 2×10^-4 M): 58%

Reference: patent publication US4351954A (priority 1979, dated 1982)
